Source: US7993931B1, “Oxygen-18 labeled organic acids and use in diagnosing metabolic disorders” (Quest Diagnostics Investments Incorporated, priority 2003, dated 2011)

Assay: Stability of oxygen-18 labeled organic acids in the sample preparation procedure (L/L extraction, MTBSTFA derivatization, GC/MS)
Settings: for stability of the labeled acid (in words): prior to L/L extraction, during an 80 minute and during a 120 minute L/L extraction
[1] = Before L/L extraction, in diluted normal human urine, pH 1, ethyl-acetate extraction, GC/MS [M-57]+

CCCC(=O)NCC(=O)O [Oxygen-18-Containing Butyryl Glycine, Butyryl glycine]
Single labeled (Before L/L extraction): 14.5%
Unlabeled (Before L/L extraction): 0.5%
Double labeled [1]: 85%
Double labeled (L/L 80 min. extraction): 85%
Single labeled (L/L 80 min. extraction): 14.8%
Unlabeled (L/L 80 min. extraction): 0.2%
Double labeled (L/L 120 min. extraction): 83%
Single labeled (L/L 120 min. extraction): 16.2%
Unlabeled (L/L 120 min. extraction): 0.8%
stability of the labeled acid (in words): exhibited stability

CC(=O)CC(=O)CCC(=O)O [Oxygen-18-Containing Succinyacetone, Succinyacetone]
Oxygen 18 × 1 (Before L/L extraction): 0.2%
Oxygen 18 × 2 (Before L/L extraction): 2.8%
Oxygen 18 × 3 (Before L/L extraction): 25%
Oxygen 18 × 4 (Before L/L extraction): 72%
Unlabeled (Before L/L extraction): 0%
Oxygen 18 × 1 (L/L 80 min. extraction): 0.2%
Oxygen 18 × 2 (L/L 80 min. extraction): 2.8%
Oxygen 18 × 3 (L/L 80 min. extraction): 27%
Oxygen 18 × 4 (L/L 80 min. extraction): 70%
Unlabeled (L/L 80 min. extraction): 0%
Oxygen 18 × 1 (L/L 120 min. extraction): 0.8%
Oxygen 18 × 2 (L/L 120 min. extraction): 3%
Oxygen 18 × 3 (L/L 120 min. extraction): 29%
Oxygen 18 × 4 (L/L 120 min. extraction): 67%
Unlabeled (L/L 120 min. extraction): 0.2%
stability of the labeled acid (in words): exhibited stability

CCC(O)C(=O)O (stereo not drawn) [oxygen-18-containing 2-OH Butyric Acid, 2-hydroxy-butyric acid]
Single labeled (Before L/L extraction): 15%
Unlabeled (Before L/L extraction): 1%
Double labeled [1]: 84%
Double labeled (L/L 80 min. extraction): 83%
Single labeled (L/L 80 min. extraction): 17.4%
Unlabeled (L/L 80 min. extraction): 0.11%
Double labeled (L/L 120 min. extraction): 80%
Single labeled (L/L 120 min. extraction): 19.7%
Unlabeled (L/L 120 min. extraction): 0.3%
stability of the labeled acid (in words): exhibited stability

CC=CC(=O)NCC(=O)O [Oxygen-18-Containing Crotonyl Glycine, Crotonyl glycine]
Single labeled (Before L/L extraction): 15.5%
Unlabeled (Before L/L extraction): 0.1%
Double labeled [1]: 84%
Double labeled (L/L 80 min. extraction): 85%
Single labeled (L/L 80 min. extraction): 14.8%
Unlabeled (L/L 80 min. extraction): 0.2%
Double labeled (L/L 120 min. extraction): 81%
Single labeled (L/L 120 min. extraction): 17.4%
Unlabeled (L/L 120 min. extraction): 1.6%
stability of the labeled acid (in words): exhibited stability

CC(O)C(C)C(=O)O (stereo not drawn) [3-hydroxy-2-methyl butyric acid]
Single labeled (Before L/L extraction): 14.9%
Unlabeled (Before L/L extraction): 0.1%
Double labeled [1]: 85%
Double labeled (L/L 80 min. extraction): 85%
Single labeled (L/L 80 min. extraction): 14.9%
Unlabeled (L/L 80 min. extraction): 0.1%
Double labeled (L/L 120 min. extraction): 85%
Single labeled (L/L 120 min. extraction): 14.7%
Unlabeled (L/L 120 min. extraction): 0.3%
stability of the labeled acid (in words): exhibited stability

O=C(O)CCCC(=O)O [Oxygen-18-Containing Glutaric Acid, Glutaric acid]
Oxygen 18 × 1 (Before L/L extraction): 0.4%
Oxygen 18 × 2 (Before L/L extraction): 3.5%
Oxygen 18 × 3 (Before L/L extraction): 27%
Oxygen 18 × 4 (Before L/L extraction): 69%
Unlabeled (Before L/L extraction): 0.1%
Oxygen 18 × 1 (L/L 80 min. extraction): 0.8%
Oxygen 18 × 2 (L/L 80 min. extraction): 3%
Oxygen 18 × 3 (L/L 80 min. extraction): 28%
Oxygen 18 × 4 (L/L 80 min. extraction): 68%
Unlabeled (L/L 80 min. extraction): 0.2%
Oxygen 18 × 1 (L/L 120 min. extraction): 0.8%
Oxygen 18 × 2 (L/L 120 min. extraction): 4%
Oxygen 18 × 3 (L/L 120 min. extraction): 30%
Oxygen 18 × 4 (L/L 120 min. extraction): 65%
Unlabeled (L/L 120 min. extraction): 0.2%
stability of the labeled acid (in words): exhibited stability

CC(C)CC(O)C(=O)O (stereo not drawn) [2-hydroxy isocaproic acid]
Single labeled (Before L/L extraction): 15.6%
Unlabeled (Before L/L extraction): 0.4%
Double labeled [1]: 84%
Double labeled (L/L 80 min. extraction): 83%
Single labeled (L/L 80 min. extraction): 16.5%
Unlabeled (L/L 80 min. extraction): 0.5%
Double labeled (L/L 120 min. extraction): 79%
Single labeled (L/L 120 min. extraction): 20.6%
Unlabeled (L/L 120 min. extraction): 0.4%
stability of the labeled acid (in words): exhibited stability

O=C(O)C(O)CO (stereo not drawn) [Oxygen-18-Containing Glyceric Acid, Glyceric acid]
Single labeled (Before L/L extraction): 13%
Unlabeled (Before L/L extraction): 0%
Double labeled [1]: 87%
Double labeled (L/L 80 min. extraction): 84%
Single labeled (L/L 80 min. extraction): 15.5%
Unlabeled (L/L 80 min. extraction): 0.5%
Double labeled (L/L 120 min. extraction): 81%
Single labeled (L/L 120 min. extraction): 17.6%
Unlabeled (L/L 120 min. extraction): 2.4%
stability of the labeled acid (in words): exhibited stability

O=C(O)Cc1ccc(O)cc1 [4-hydroxy phenyl acetic acid]
Single labeled (Before L/L extraction): 15.5%
Unlabeled (Before L/L extraction): 0.8%
Double labeled [1]: 83.7%
Double labeled (L/L 80 min. extraction): 81%
Single labeled (L/L 80 min. extraction): 15.8%
Unlabeled (L/L 80 min. extraction): 3.2%
Double labeled (L/L 120 min. extraction): 78%
Single labeled (L/L 120 min. extraction): 19.7%
Unlabeled (L/L 120 min. extraction): 2.3%
stability of the labeled acid (in words): exhibited stability
